# Measurements from US20260206751A1, “NOVEL BICYCLIC-CARBOXAMIDE COMPOUNDS USEFUL AS PESTICIDES” (SYNGENTA CROP PROTECTION AG, priority 2022, published 2026).
# Experiments:
# Format in all cases: in vivo
# [1] = system: Myzus persicae (Green Peach Aphid); experiment: Myzus persicae (green peach aphid) intrinsic activity; conditions: 120 h, test rate 12 ppm, mixed with sucrose solution, Parafilm, infested pea seedlings, 5 days after infestation
# Description: Example B5: Myzus persicae (Green Peach Aphid). Intrinsic Activity
# Test compounds prepared from 10,000 ppm DMSO stock solutions were applied by pipette into 24-well microtiter plates and mixed with sucrose solution. The plates were closed with a stretched Parafilm. A plastic stencil with 24 holes was placed onto the plate and infested pea seedlings were placed directly on the Parafilm. The infested plate was closed with a gel blotting paper and another plastic stencil and then turned upside down. The samples were assessed for mortality 5 days after infestation.
# [2] = system: Plutella xylostella (Diamond Back Moth); experiment: Plutella xylostella (diamond back moth) feeding/contact activity; conditions: 192 h, application rate 200 ppm, artificial diet, Plutella eggs, 8 days after infestation, read-out: effect in at least one of the two categories (mortality or growth inhibition)
# Description: Example B7: Plutella xylostella (Diamond Back Moth) Feeding/Contact Activity
# 24-well microtiter plates with artificial diet were treated with aqueous test solutions prepared from 10,000 ppm DMSO stock solutions by pipetting. After drying, Plutella eggs were pipetted through a plastic stencil onto a gel blotting paper and the plate was closed with it. The samples were assessed for mortality and growth inhibition in comparison to untreated samples 8 days after infestation.
# [3] = system: Spodoptera littoralis (Egyptian Cotton Leaf Worm); experiment: Spodoptera littoralis (Egyptian cotton leaf worm) feeding/contact activity; conditions: foliar, 72 h, application rate 200 ppm, sprayed cotton leaf discs, L1 larvae, 3 days after infestation, read-out: control (mortality, anti-feeding effect, growth inhibition)
# Description: Example B8: Spodoptera littoralis (Egyptian Cotton Leaf Worm) Feeding/Contact Activity
# Cotton leaf discs were placed onto agar in 24-well microtiter plates and sprayed with aqueous test solutions prepared from 10,000 ppm DMSO stock solutions. After drying the leaf discs were infested with five L1 larvae. The samples were assessed for mortality, anti-feeding effect, and growth inhibition in comparison to untreated samples 3 days after infestation. Control of Spodoptera littoralis by a test sample is given when at least one of the categories mortality, anti-feedant effect, and growth inhibition is higher than the untreated sample.
# [4] = system: Myzus persicae (Green Peach Aphid); experiment: Myzus persicae (green peach aphid) feeding/contact activity, sunflower leaf discs; conditions: foliar, 144 h, application rate 200 ppm, sprayed sunflower leaf discs, aphid population of mixed ages, 6 days after infestation
# Description: Example B4: Myzus persicae (Green Peach Aphid):Feeding/Contact Activity
# (§1) Sunflower leaf discs were placed onto agar in a 24-well microtiter plate and sprayed with aqueous test solutions prepared from 10,000 ppm DMSO stock solutions. After drying, the leaf discs were infested with an aphid population of mixed ages. The samples were assessed for mortality 6 days after infestation.
# [5] = system: Myzus persicae (Green Peach Aphid); experiment: Myzus persicae (green peach aphid) feeding/contact activity, eggplant leaf discs; conditions: foliar, 144 h, application rate 200 ppm, sprayed eggplant leaf discs, aphid population of mixed ages, 6 days after infestation, read-out: growth inhibition
# Description: as §1, with “Example B6: Myzus persicae (Green Peach Aphid) Feeding/Contact Activity Eggplant” for “Sunflower”
# [6] = system: Frankliniella occidentalis (Western Flower Thrips); experiment: Frankliniella occidentalis (western flower thrips) feeding/contact activity; conditions: foliar, 168 h, application rate 200 ppm, sprayed sunflower leaf discs, population of mixed ages, 7 days after infestation
# Description: Example B3: Frankliniella occidentalis (Western Flower Thrips): Feeding/Contact Activity
# Sunflower leaf discs were placed on agar in 24-well microtiter plates and sprayed with aqueous test solutions prepared from 10,000 DMSO stock solutions. After drying the leaf discs were infested with a Frankliniella population of mixed ages. The samples were assessed for mortality 7 days after infestation.
# [7] = system: Euschistus heros (Neotropical Brown Stink Bug); experiment: Euschistus heros (neotropical brown stink bug) feeding/contact activity; conditions: 120 h, application rate 200 ppm, sprayed soybean leaves, N2 nymphs, 5 days after infestation, read-out: effect in at least one of the two categories (mortality or growth inhibition)
# Description: Example B2: Euschistus heros (Neotropical Brown Stink Bug) Feeding/Contact Activity
# Soybean leaves on agar in 24-well microtiter plates were sprayed with aqueous test solutions prepared from 10,000 ppm DMSO stock solutions. After drying the leaves were infested with N2 nymphs. The samples were assessed for mortality and growth inhibition in comparison to untreated samples 5 days after infestation.
# [8] = system: Diabrotica balteata (Corn Root Worm); experiment: Diabrotica balteata (corn root worm) feeding/contact activity; conditions: 96 h, application rate 200 ppm, sprayed maize sprouts, L2 larvae, 4 days after infestation, read-out: effect in at least one of the two categories (mortality or growth inhibition)
# Description: Example B1: Diabrotica balteata (Corn Root Worm) Feeding/Contact Activity
# Maize sprouts placed onto an agar layer in 24-well microtiter plates were treated with aqueous test solutions prepared from 10,000 ppm DMSO stock solutions by spraying. After drying, the plates were infested with L2 larvae (6 to 10 per well). The samples were assessed for mortality and growth inhibition in comparison to untreated samples 4 days after infestation.
# [9] = system: Tetranychus urticae (Two-Spotted Spider Mite); experiment: Tetranychus urticae (two-spotted spider mite) feeding/contact activity; conditions: foliar, 192 h, application rate 200 ppm, sprayed bean leaf discs, mite population of mixed ages (mobile stages), 8 days after infestation
# Description: Example B9: Tetranychus urticae (Two-Spotted Spider Mite): Feeding/Contact Activity
# Bean leaf discs on agar in 24-well microtiter plates were sprayed with aqueous test solutions prepared from 10,000 ppm DMSO stock solutions. After drying the leaf discs were infested with a mite population of mixed ages. The samples were assessed for mortality on mixed population (mobile stages) 8 days after infestation.
Structure (SMILES),mortality at 12 ppm [1] [%],percent effect (mortality or growth inhibition) at 200 ppm [2] [%],mortality at 200 ppm [4] [%],further results
"C[C@@H](COc1cc2c(c(C(=O)NC34CC(C3)C4)c1)CCCC2)NS(=O)(=O)C(F)(F)F [P-32, N-(1-bicyclo[1.1.1]pentanyl)-7-[(2S)-2-(trifluoromethylsulfonylamino)propoxy]tetralin-5-carboxamide]",≥ 80,≥ 80,–,–
"C[C@@H](COc1cc2c(c(C(=O)Nc3ccc(F)cc3F)c1)CCCC2)NS(=O)(=O)C(F)(F)F [P-22, N-(2,4-difluorophenyl)-7-[(2S)-2-(trifluoromethylsulfonylamino)propoxy]tetralin-5-carboxamide]",–,–,–,mortality at 200 ppm [3]: ≥ 80%
"CCN1OC[C@@H](NC(=O)c2cc(OC[C@H](C)NS(=O)(=O)C(F)(F)F)c(C)c3c2CCC3)C1=O [P-2, N-[(4R)-2-ethyl-3-oxo-isoxazolidin-4-yl]-7-methyl-6-[(2S)-2-(trifluoromethylsulfonylamino)propoxy]indane-4-carboxamide]",–,–,≥ 80,–
"Cc1cc(F)ccc1NC(=O)c1cc(OC[C@H](C)NS(=O)(=O)C(F)(F)F)cc2c1CCCC2 [P-28, N-(4-fluoro-2-methyl-phenyl)-7-[(2S)-2-(trifluoromethylsulfonylamino)propoxy]tetralin-5-carboxamide]",–,≥ 80,–,–
"Cc1c(OC[C@H](C)NS(=O)(=O)C(F)(F)F)cc(C(N)=O)c2c1CCC2 [P-1, 7-methyl-6-[(2S)-2-(trifluoromethylsulfonylamino)propoxy]indane-4-carboxamide]",–,–,≥ 80,–
"COC(=O)C1(NC(=O)c2cc(OC[C@H](C)NS(=O)(=O)C(F)(F)F)c(C)c3c2CCC3)CC1 [P-4, methyl 1-[7-methyl-6-[(2S)-2-(trifluoromethylsulfonylamino)propoxy]indane-4-carbonyl]amino] cyclopropanecarboxylate]",–,≥ 80,≥ 80,–
"Cc1cc(F)ccc1NC(=O)c1cc(OC[C@H](C)NS(=O)(=O)C(F)(F)F)c(C)c2c1CCC2 [P-42, N-(4-fluoro-2-methyl-phenyl)-7-methyl-6-[(2S)-2-(trifluoromethylsulfonylamino)propoxy]indane-4-carboxamide]",≥ 80,–,–,–
"C[C@@H](COc1cc2c(c(C(N)=O)c1)CCCC2)NS(=O)(=O)C(F)(F)F [P-30, 7-[(2S)-2-(trifluoromethylsulfonylamino)propoxy]tetralin-5-carboxamide]",–,–,–,inhibition at 200 ppm [5]: ≥ 80%
"CO/N=C/NC(=O)c1cc(OC[C@H](C)NS(=O)(=O)C(F)(F)F)c(C)c2c1CCC2 [P-6, N-[(E)-methoxyiminomethyl]-7-methyl-6-[(2S)-2-(trifluoromethylsulfonylamino)propoxy]indane-4-carboxamide]",–,–,≥ 80,–
"Cc1c(OC[C@H](C)NS(=O)(=O)C(F)(F)F)cc(C(=O)NC2(C#N)CC2)c2c1CCC2 [P-7, N-(1-cyanocyclopropyl)-7-methyl-6-[(2S)-2-(trifluoromethylsulfonylamino)propoxy]indane-4-carboxamide]",≥ 80,–,≥ 80,mortality at 200 ppm [6]: ≥ 80%
"C[C@@H](COc1cc2c(c(C(=O)NCc3ncccn3)c1)CCCC2)NS(=O)(=O)C(F)(F)F [P-23, N-(pyrimidin-2-ylmethyl)-7-[(2S)-2-(trifluoromethylsulfonylamino)propoxy]tetralin-5-carboxamide]",–,–,–,mortality at 200 ppm [6]: ≥ 80%
"C[C@@H](COc1cc2c(c(C(=O)NC3CC3)c1)CCC2)NS(=O)(=O)C(F)(F)F [P-33, N-cyclopropyl-6-[(2S)-2-(trifluoromethylsulfonylamino)propoxy]indane-4-carboxamide]",–,–,–,percent effect (mortality or growth inhibition) at 200 ppm [7]: ≥ 80%; inhibition at 200 ppm [5]: ≥ 80%
"C[C@@H](COc1cc2c(c(C(=O)NC3(C#N)CC3)c1)CCCC2)NS(=O)(=O)C(F)(F)F [P-8, N-(1-cyanocyclopropyl)-7-[(2S)-2-(trifluoromethylsulfonylamino)propoxy]tetralin-5-carboxamide]",≥ 80,≥ 80,≥ 80,–
Cc1c(OC[C@H](C)NS(=O)(=O)C(F)(F)F)cc(C(=O)NC2CC2)c2c1CCC2 [P-3],≥ 80,≥ 80,≥ 80,percent effect (mortality or growth inhibition) at 200 ppm [8]: ≥ 80%; percent effect (mortality or growth inhibition) at 200 ppm [7]: ≥ 80%; mortality at 200 ppm [6]: ≥ 80%
"Cc1c(OC[C@H](C)NS(=O)(=O)C(F)(F)F)cc(C(=O)NC23CC(C2)C3)c2c1CCC2 [P-41, N-(1-bicyclo[1.1.1]pentanyl)-7-methyl-6-[(2S)-2-(trifluoromethylsulfonylamino)propoxy]indane-4-carboxamide]",≥ 80,≥ 80,–,–
"C[C@@H](COc1cc2c(c(C(=O)NC3CC3)c1)CCCC2)NS(=O)(=O)C(F)(F)F [P-9, N-cyclopropyl-7-[(2S)-2-(trifluoromethylsulfonylamino)propoxy]tetralin-5-carboxamide]",≥ 80,≥ 80,≥ 80,–
"Cc1c(OC[C@H](C)NS(=O)(=O)C(F)(F)F)cc(C(=O)NC2CON(CC(F)(F)F)C2=O)c2c1CCC2 (stereo partly drawn) [P-40, 7-methyl-N-[3-oxo-2-(2,2,2-trifluoroethyl)isoxazolidin-4-yl]-6-[(2S)-2-(trifluoromethylsulfonylamino)propoxy]indane-4-carboxamide]",≥ 80,≥ 80,–,–
Cc1c(OC[C@H](C)NS(=O)(=O)C(F)(F)F)cc(C(=O)NC2(C(=O)O)CC2)c2c1CCC2 [P-5],–,–,≥ 80,–
"Cc1c(OC[C@H](C)NS(=O)(=O)C(Cl)Cl)cc(C(=O)NC2CC2)c2c1CCC2 [P-34, N-cyclopropyl-6-[(2S)-2-(dichloromethylsulfonylamino)propoxy]-7-methyl-indane-4-carboxamide]",–,–,–,mortality at 200 ppm [9]: ≥ 80%
"C[C@@H](COc1cc2c(c(C(=O)NC3(C#N)CCC3)c1)CCCC2)NS(=O)(=O)C(F)(F)F [P-11, N-(1-cyanocyclobutyl)-7-[(2S)-2-(trifluoromethylsulfonylamino)propoxy]tetralin-5-carboxamide]",≥ 80,–,–,–
"Cc1c(OC[C@H](C)NS(=O)(=O)C(F)(F)F)cc(C(=O)NCC(F)(F)F)c2c1CCC2 [P-39, 7-methyl-N-(2,2,2-trifluoroethyl)-6-[(2S)-2-(trifluoromethylsulfonylamino)propoxy]indane-4-carboxamide]",–,≥ 80,–,–
"C[C@@H](COc1cc2c(c(C(=O)NCC(F)(F)F)c1)CCCC2)NS(=O)(=O)C(F)(F)F [P-15, N-(2,2,2-trifluoroethyl)-7-[(2S)-2-(trifluoromethylsulfonylamino)propoxy]tetralin-5-carboxamide]",–,≥ 80,–,–
